The target of assay [1] is T1, Mu-type opioid receptor (Homo sapiens, UniProt P35372). The experiment in a line: Displacement of [3H]DAMGO from mu-opioid receptor (unknown origin).
Assay [2] addresses T2, Kappa-type opioid receptor (Homo sapiens, UniProt P41145). The assay can be described thus: Displacement of [3H]U-69593 from kappa-opioid receptor (unknown origin). (In general: Displacement assays read how much labelled ligand stays bound in the presence of the test substance.)
Assay [3] is filed under the species Homo sapiens. The assay can be described thus: Selectivity ratio Ki for kappa-opioid receptor (unknown origin) to Ki for delta-opioid receptor (unknown origin).
Assay [4] is filed under the species Homo sapiens. The assay can be described thus: Selectivity ratio Ki for mu-opioid receptor (unknown origin) to Ki for delta-opioid receptor (unknown origin).
For assay [5], the target named is T3, Delta-type opioid receptor (Homo sapiens, UniProt P41143). The experiment in a line: Displacement of [3H]DPDPE from delta-opioid receptor (unknown origin).
Assay [6] has as its target T3, Delta-type opioid receptor. The assay can be described thus: Agonist activity at delta-opioid receptor (unknown origin) by [35S]GTPgammaS binding assay. Format: functional. Background: GTPγS is a poorly hydrolysed GTP analogue; its binding reports G protein activation.
For assay [7], the target named is T1, Mu-type opioid receptor. The assay can be described thus: Agonist activity at mu-opioid receptor (unknown origin) by [35S]GTPgammaS binding assay. Format: functional.
Assay [8] has as its target T2, Kappa-type opioid receptor. The experiment in a line: Agonist activity at kappa-opioid receptor (unknown origin) by [35S]GTPgammaS binding assay.

SMILES strings stand for the structures.

T3 sequence (P41143 whole entry): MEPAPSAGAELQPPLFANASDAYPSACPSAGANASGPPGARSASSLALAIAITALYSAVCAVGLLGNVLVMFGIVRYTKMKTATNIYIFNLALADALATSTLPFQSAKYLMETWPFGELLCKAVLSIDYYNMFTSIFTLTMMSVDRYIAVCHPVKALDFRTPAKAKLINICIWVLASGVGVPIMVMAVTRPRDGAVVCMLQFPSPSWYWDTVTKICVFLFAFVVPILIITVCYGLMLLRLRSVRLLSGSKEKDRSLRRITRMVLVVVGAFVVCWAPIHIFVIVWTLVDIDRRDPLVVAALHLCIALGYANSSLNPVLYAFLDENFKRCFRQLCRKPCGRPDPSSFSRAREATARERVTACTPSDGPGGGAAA
T2 sequence (P41145 whole entry): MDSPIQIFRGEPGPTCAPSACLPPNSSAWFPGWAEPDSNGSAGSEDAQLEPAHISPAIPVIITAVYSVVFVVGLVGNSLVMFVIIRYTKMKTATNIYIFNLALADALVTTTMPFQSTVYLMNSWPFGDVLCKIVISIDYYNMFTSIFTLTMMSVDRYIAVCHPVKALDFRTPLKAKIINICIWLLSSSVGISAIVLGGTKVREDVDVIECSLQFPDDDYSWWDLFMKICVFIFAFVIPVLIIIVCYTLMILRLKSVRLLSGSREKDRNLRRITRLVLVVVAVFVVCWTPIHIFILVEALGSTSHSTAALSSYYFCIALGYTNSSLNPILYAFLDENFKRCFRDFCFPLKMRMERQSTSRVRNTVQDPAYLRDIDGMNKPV
T1 sequence (P35372 whole entry): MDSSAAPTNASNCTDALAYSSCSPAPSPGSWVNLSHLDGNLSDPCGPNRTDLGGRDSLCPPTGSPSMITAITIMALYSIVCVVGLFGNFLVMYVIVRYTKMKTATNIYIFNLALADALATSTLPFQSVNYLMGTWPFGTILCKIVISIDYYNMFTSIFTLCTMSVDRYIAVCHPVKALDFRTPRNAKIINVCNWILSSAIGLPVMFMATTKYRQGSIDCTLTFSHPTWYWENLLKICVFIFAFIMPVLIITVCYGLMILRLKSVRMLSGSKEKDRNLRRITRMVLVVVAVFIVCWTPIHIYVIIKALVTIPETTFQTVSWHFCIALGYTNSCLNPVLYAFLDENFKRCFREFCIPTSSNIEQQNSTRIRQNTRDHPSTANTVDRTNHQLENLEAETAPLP

What is called Ki is the dissociation constant of the complex between target and ligand, obtained from inhibition or displacement. A higher Ki goes with weaker binding. For the molecule `Oc1ccc2c(c1)[C@]13CCN(CC4(O)CC4)C[C@@]1(C2)Cc1cc2ccccc2nc1C3`, the values for the Ki (on Mu-type opioid receptor [1]; in assay [2]; in assay [5]) were 415 nM, 879 nM and 1.1 nM, respectively. For the same molecule, the Ratio Ki in the assay listed under Homo sapiens [3] is 801; in the assay filed under Homo sapiens [4], 378.

In the case of `Oc1ccc2c(c1)[C@]13CCN(Cc4ccccc4)C[C@@]1(C2)Cc1cc2ccccc2nc1C3`, the figures for the Ki (at Mu-type opioid receptor [1]; in assay [2]; in assay [5]) were 76.3 nM, 594 nM and 31.6 nM, respectively. Also, the Ratio Ki in the assay listed under Homo sapiens [3] was determined as 18.8; in the assay filed under Homo sapiens [4], 2.42.

Regarding `O=C1CC[C@@]23Cc4ccc(O)cc4[C@@]2(CCN(CC2CC2)C3)C1`, the figures for the Ki (on Mu-type opioid receptor [1]; in assay [2]; in assay [5]) were 58.2 nM, 17.4 nM and 448 nM, respectively.

In general, EC50 refers to the concentration giving half of the maximal effect. A lower EC50 goes with greater potency. The term Emax denotes the greatest response seen or fitted, relative to the assay's reference. In the case of `Oc1ccc2c(c1)[C@]13CCN(CC4CC4)C[C@@]1(C2)Cc1cc2ccccc2nc1C3`, the Ki amounted to 112 nM on Mu-type opioid receptor [1], 84.6 nM in assay [2] and 0.941 nM in assay [5]. Further, the EC50 in assay [6] amounted to 2.5 nM; on Mu-type opioid receptor [7], 197 nM; in assay [8], 836 nM. The figures for the Emax (in assay [6]; on Mu-type opioid receptor [7]) were 88% and 56%, respectively. Also, the Ratio Ki in the assay listed under Homo sapiens [3] turned out to be 89.9; in the assay listed under Homo sapiens [4], 119.

Take `CN1CC[C@]23Cc4nc5ccccc5cc4C[C@]2(Cc2ccc(O)cc23)C1`: the Ki at Mu-type opioid receptor [1] was 3.06 nM; in assay [2], 195 nM; in assay [5], 1.88 nM. In addition, the Ratio Ki in the assay listed under Homo sapiens [3] turned out to be 104; in the assay listed under Homo sapiens [4] it was 1.63.

Source of the values: ChEMBL document CHEMBL3286318, “Design and synthesis of quinolinopropellane derivatives with selective δ opioid receptor agonism” (Bioorg Med Chem Lett, 2014).
